The record followed here is patent publication US11447533B2, “Antimicrobial and anticancer peptides and conjugates and compositions, methods, articles and kits relating thereto” (George Mason Research Foundation, Inc., priority 2018, dated 2022).

Data set [1] deals with primary lung epithelium cells. Kind of data set: Cytotoxicity (Alamar blue). Format: cell-based, human. As to conditions: ~16 hours (overnight), reduced serum conditions. The method, then:
FIGS. 11A-11B are graphs showing cytotoxicity against primary lung epithelium cells in serum-free condition. Cells were seeded in complete growth medium (Minimal essential medium supplemented with 10% fetal bovine serum) at near-confluence into a 96-well plate and allowed to settle for 24-hours. Media was then replaced to OptiMEM I reduced serum medium containing peptide or vehicle alone (DBPS) and cells were incubated overnight (16 hours). A resazurin based dye (Alamar blue) was added directly to media and conversion of resazurin to resorufin was evaluated following two hours. % Survival represents the proportion of viable cells in peptide treated cells relative to cells treated with vehicle alone. […] Each peptide was tested in triplicate.
FIG. 12 is a graph showing comparison of toxicities against Lung Primary Epithelial cells and Lung Cancerous Epithelial Cells, derived from H358 cell-line. […] Each peptide was tested in triplicate.
Cytotoxicity. Cells were seeded in complete growth medium (Minimal Essential Medium, MEMα, supplemented with 10% Fetal Bovine Serum) into a culture-treated 96-well plate at a density of 25000 cells per well. After 24 hours, culture media was aspirated and replaced with media containing the selected peptide. No-serum experiments were conducted in Opti-MEM I reduced serum media (ThermoFisher, 31985062) and 10% serum experiments were performed in complete growth medium. In all cases, DBPS was used as a vehicle only control and buffer to serially dilute the peptides. After exposure to the peptides or vehicle-alone for the defined period, Alamar blue dye (resazurin) was added directly to the media and allowed to incubate for two hours. Following incubation, A570/A600 measurements were made to calculate reduction of resazurin dye to resorufin. A ratio of reduction in treated versus untreated cells was calculated in order to determine overall cell viability. The human cells were always maintained in a 37° C. incubator under 5% CO2.

The subject of another data set is E. coli ATCC 25922. Kind of data set: Antimicrobial efficacy (resazurin virtual colony count). Format: cell-based, Escherichia coli. The note with it: PBS (high / physiologically relevant ionic strength), pH 7.4. The method, then: Antimicrobial Studies. The phosphate buffers used for antimicrobial assays were supplemented with non-nitrogenous energy source, 0.1% (w/v) glucose. To conduct antimicrobial assays, bacterial strains were first suspended in respective buffers. E. coli (ATCC 25922) and B. cereus (ATCC 11778) were grown in MHB II up to OD600 nm˜1 and stored as frozen stock in 20% glycerol at −80° C. Occasionally they were thawed and enumerated by serial dilution and spreading on MHB II agar plates. The concentrations of the frozen stocks of E. coli and B. cereus strains were 1.0-1.1*10^8 CFU/mL with OD600 nm˜0.8. In case of other bacterial strains, they were grown on the days of experiment up to OD600 nm˜1-1.5 and then adjusted to OD600 nm˜0.8. The growth media of the drug-resistant bacterial strains were supplemented with few of the respective antibiotics against which they are resistant. 200 μL of the 0.8 OD600 nm culture were added to 10 mL of the respective buffer to obtain a suspension which was used to incubate with equal volumes of peptide solution in the same buffer.
Antimicrobial assays in different phosphate buffers and serum were conducted by adapting, with necessary modifications a fast high-throughput method based on Virtual Colony Count technique and later modified by incorporating the use of resazurin. At first serial dilution of a microbial strain in respective buffer was poured in the wells of 96 well polypropylene microplate and was then added with same volume of 2× MHB II supplemented with 80 μg/mL resazurin and incubated at 35° C. in a Gemini EM Microplate Reader (Molecular Devices) overnight with intermittent shaking. As the microbe grows it reduces non-fluorescent resazurin to fluorescent resorufin and the fluorescent intensity of each well were measured (excitation=570 nm, emission=590 nm) each 5 min for 15 hours. The time (t, min) to reach a certain fluorescence (RFU=20000 with respect to the starting fluorescence) was correlated with the initial bacterial concentration (in CFU/mL) in the particular well to obtain a calibration plot of the form: Log([Bacteria],CFU/mL)=b+m*t Equation 4: […]
To obtain antimicrobial efficacy of the peptides, 50 μL of serially diluted peptide in a buffer was incubated with 50 μL microbial suspension in the same buffer for 3 hours in black polypropylene 96 well plate. After incubation the wells were added with 100 μL of 2× MHB II supplemented with 80 μg/mL resazurin and then incubated with continuous fluorescence reading for overnight time period as described earlier. The surviving microbial population (CFU/mL) in each well were calculated by first finding the time to reach a fluorescence of RFU=20000 and the correlation (4) for the specific microbial strain and buffer. % Survival represents the proportion of viable cells in peptide treated cells relative to cells treated with the respective buffer alone. Equation 5: […]
Finally, the antimicrobial effectiveness of each peptide against the particular microbial strain in the specific buffer was determined by plotting % microbial survival as a function of the log of the concentration of the peptide and fitting the resulting data to a variable-slope sigmoidal regression model (equation 6). In this equation, log(EC50) represents the log of the concentration of the peptide required to kill half of the microbial population, where Smin and Smax correspond to the minimal and maximal microbial survival values (respectively), and H, Hill slope, is the parameter defining the steepness of the transition slopes of sigmoidal survival curves. % Microbial survival=Smin+(Smax−Smin)/(1+10^log(EC^50^)-log[peptide]*H) Equation 6: […]
The antimicrobial efficacies of the peptides were first tested against the model Gram-negative bacteria, E. coli ATCC 25922, in different phosphate buffers having varied ionic strengths and compositions. The phosphate buffers that were used included 10 mM sodium phosphate (calculated ionic strength˜25 mM), PBS and DPBS. […]

A short description of data set [2]: Endotoxin binding: competitive displacement of BODIPY TR-Cadaverine from LTA. Set-up: species or system Staphylococcus aureus. As to conditions: 5 μM peptide, 10 μM BC, 10 μg/mL LTA, 10 mM Na-PO4. As for the experimental part: (§1) FIGS. 2A-2B are graphs showing endotoxin binding. The figures depict the competitive displacement of BC from LPS/LTA by the peptides. 5 μM of each peptide was incubated with 10 μM BC and 10 μg/mL LPS from E. coli (0111:B4) or LTA from S. aureus. Fluorescence intensity was measured at excitation=580 nm and emission=620 nm. 10 μM BC without endotoxin was used as 100% displacement while 10 μM BC with 10 μg/mL LPS/LTA without any peptide as 0% displacement and the % displacement of BC by each peptide was calculated accordingly. […] had been used as a positive control. The horizontal dotted line coincides with the % displacement of BC by ATRA1 on the y-axis.
(§2) FIGS. 6A-6B are graphs showing endotoxin (LPS (FIG. 6A) and LTA (FIG. 6B)) binding. Competitive displacement of BC from LPS/LTA. In each case, 5 μM peptide was incubated with 10 μM BC and 10 μg/mL LPS from E. coli (0111:B4) or LTA from S. aureus. Fluorescence intensity was measured using excitation=580 nm and emission=620 nm. As a positive control 10 μM BC without endotoxin was used as a reference for 100% displacement while 10 μM BC with 10 μg/mL LPS/LTA without any peptide as a negative control and a reference for 0% displacement. These controls were used to calculate % BC displacement for each peptide.
(§3) Endotoxin Binding. The binding of endotoxin (LPS/LTA) was evaluated using a fluorogenic conjugateBODIPY TR-Cadaverine (BC). BC binds endotoxin loses its fluorescence. The peptide competitively displaces BC from endotoxin and the fluorescence is reestablished. Competitive inhibition of endotoxin-BC binding was utilized due to presence of peptides already in complexion with endotoxin. 25 μL of 20 μM of peptides in 10 mM Na—PO4 buffer were incubated with 25 μL of LPS (40 μg/mL) or LTA (40 μg/mL) for 15 min and then added with 50 μL of BC (20 uM). Peptides bind to LPS or LTA and competitively prevents BC bind to the endotoxin. BC loses its fluorescence on binding to endotoxin. The fluorescence intensity of the unbound BC was measured at excitation=580 nm and emission=620 nm.
(§4) BC contains two functional moieties: BODIPY (boron-dipyrromethene) and cadaverine connected via a carboxamide. BODIPY is the fluorophore of BC and fluoresces in the free state in solution but loses fluorescence when bound to LPS/LTA. The competitive displacement of BC from LPS/LTA by AMPs and thus regeneration of the fluorescence has frequently been used to estimate the binding strength of AMPs with LPS/LTA. In the present studies, 5 μM of each peptide was used to displace BC from LPS/LTA. […] Such observation contradicts the initial assumption that substitution of Lys with arginine would result in increased efficiency of LPS binding. However, with sequential substitutions of Lys with arginine, starting with ATRA1-AR, peptide variants show increased LPS binding with each additional arginine substitution. In terms of LPS binding: ATRA1-AR<ATRA1-AR2<ATRA1-AR3. In ATRA1-R3, the lysine residues at 9th, 5th and 1st positions of ATRA1 were substituted with arginine. In ATRA1-R6 all of the lysine residues were replaced with arginine.

The nature of data set [3]: Endotoxin binding: competitive displacement of BODIPY TR-Cadaverine from LPS. Details: species or system Escherichia coli. As to conditions: 5 μM peptide, 10 μM BC, 10 μg/mL LPS, low ionic-strength 10 mM Na-PO4. As for the experimental part:
as §1, §2, §3, §4

For the compound `CC[C@H](C)[C@H](NC(=O)CN)C(=O)NCC(=O)N[C@@H](C)C(=O)N[C@H](C(=O)N[C@@H](CC(C)C)C(=O)N[C@@H](CCCCN)C(=O)N[C@H](C(=O)N[C@@H](CC(C)C)C(=O)N[C@H](C(=O)N[C@H](C(=O)NCC(=O)N[C@@H](CC(C)C)C(=O)N1CCC[C@H]1C(=O)N[C@@H](C)C(=O)N[C@@H](CC(C)C)C(=O)N[C@H](C(=O)N[C@@H](CO)C(=O)N[C@@H](Cc1c[nH]c2ccccc12)C(=O)N[C@H](C(=O)N[C@@H](CCCCN)C(=O)N[C@@H](CCCNC(=N)N)C(=O)N[C@@H](CCCCN)C(=O)N[C@@H](CCCNC(=N)N)C(=O)N[C@@H](CCC(N)=O)C(=O)N[C@@H](CCC(N)=O)C(N)=O)[C@@H](C)CC)[C@@H](C)CC)[C@@H](C)O)[C@@H](C)O)C(C)C)C(C)C` [melittin], the “cytotoxicity, in words” value in data set [1] is “killed the cells at the highest degree”.
As to KKAKKFFKKLK (SEQ ID NO: 5) [ATRA1-AK], the “antimicrobial efficacy, in words” value in the data set on E. coli ATCC 25922 is given as “lost activity in PBS”. In addition, in data set [2], the “LTA binding (BC displacement), in words” value is reported as “highest LTA binding”. Further, the “LPS binding (BC displacement), in words” value in data set [3] was “highest LPS binding among all the peptides”.
